Source: patent US20200147243A1, “LIGAND COMPOUND OF ALPHA7 NICOTINIC ACETYLCHOLINE RECEPTOR AND APPLICATION THEREOF” (BEIJING NORMAL UNIVERSITY, priority 2017, published 2020)
Where two headings read alike, the source gives them in different places.

Columns and labels:
hERG potassium channel [1] = target: T1, hERG potassium channel (Homo sapiens, UniProt Q12809); experiment: in vitro
α7 nAChRs = α7 nAChRs (Rattus norvegicus, UniProt Q05941); experiment: In vitro competitive binding experiment with [125I] α-bgt as radioactive standard; design: species or system SD rats; settings: 0.4 nM [125I] α-bgt, Cheng-Prusoff, mean of three measurements ± SD; read-out: Ki (nM), in vitro binding affinity to α7 nAChRs
hERG potassium channel [2] = target: T1, hERG potassium channel; experiment: In vitro hERG potassium channel inhibition experiment (conventional patch clamp, HEK293 cell line stably expressing hERG)
hERG potassium channel [3] = target: T1, hERG potassium channel
Kunming mice = experiment: Measurement of half lethal dosage LD50 (tail vein injection); type: in vivo; settings: for Death Rate (%): tail vein
Excerpt: (§1) There are many methods for calculating LD50, among which the weighted probit method created by Bliss and then developed by later researchers was the most accurate and rigorous, and was the standard LD50 calculation method recognized by researchers. This calculation method will be used herein to solve the LD50 value of the compound to be measured to the mice.

[4] = as above; type: in vivo, Kunming mice; settings: both sexes, Kunming, mouse, in vivo, intravenous, mice, tail vein injection
Excerpt: as §1

[5] = 5 min after administration; cited from earlier work
[6] = 5 min after the administration, cited from earlier work
[7] = IC50 (μM), hERG potassium current, Table 7 and text, n=3
[8] = hERG Potassium Channel IC50 (nM), Table 8

T1 sequence (Q12809 whole entry): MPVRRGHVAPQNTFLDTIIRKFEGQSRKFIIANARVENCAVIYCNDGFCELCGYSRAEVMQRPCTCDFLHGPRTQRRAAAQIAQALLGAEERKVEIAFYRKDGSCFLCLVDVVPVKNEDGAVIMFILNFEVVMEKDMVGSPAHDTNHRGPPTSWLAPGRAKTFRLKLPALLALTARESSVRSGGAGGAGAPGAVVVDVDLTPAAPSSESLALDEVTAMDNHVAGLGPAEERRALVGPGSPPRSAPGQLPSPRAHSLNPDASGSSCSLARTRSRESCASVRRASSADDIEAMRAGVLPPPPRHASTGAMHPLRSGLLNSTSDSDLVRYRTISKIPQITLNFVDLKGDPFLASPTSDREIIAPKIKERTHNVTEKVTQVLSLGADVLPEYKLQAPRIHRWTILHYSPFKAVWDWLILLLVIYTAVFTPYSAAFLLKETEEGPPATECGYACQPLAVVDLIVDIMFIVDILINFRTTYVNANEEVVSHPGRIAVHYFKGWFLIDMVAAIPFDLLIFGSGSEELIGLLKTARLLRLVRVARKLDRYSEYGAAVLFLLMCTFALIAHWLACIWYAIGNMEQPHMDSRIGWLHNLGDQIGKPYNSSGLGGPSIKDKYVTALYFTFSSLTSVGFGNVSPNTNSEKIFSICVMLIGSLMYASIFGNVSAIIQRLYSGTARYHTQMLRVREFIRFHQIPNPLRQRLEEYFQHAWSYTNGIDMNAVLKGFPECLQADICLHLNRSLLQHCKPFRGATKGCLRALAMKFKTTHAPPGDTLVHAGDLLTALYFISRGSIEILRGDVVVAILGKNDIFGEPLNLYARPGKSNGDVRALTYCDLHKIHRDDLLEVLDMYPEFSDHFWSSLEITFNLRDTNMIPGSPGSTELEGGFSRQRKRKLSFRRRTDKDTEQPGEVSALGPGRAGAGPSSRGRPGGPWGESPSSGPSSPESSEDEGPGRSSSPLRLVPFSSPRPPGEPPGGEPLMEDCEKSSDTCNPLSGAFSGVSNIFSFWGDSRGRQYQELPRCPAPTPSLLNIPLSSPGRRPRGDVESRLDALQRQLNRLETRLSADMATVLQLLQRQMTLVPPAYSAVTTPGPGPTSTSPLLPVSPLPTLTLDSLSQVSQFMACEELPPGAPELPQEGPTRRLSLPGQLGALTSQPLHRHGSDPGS
Sequence of α7 nAChRs (Q05941 23-502): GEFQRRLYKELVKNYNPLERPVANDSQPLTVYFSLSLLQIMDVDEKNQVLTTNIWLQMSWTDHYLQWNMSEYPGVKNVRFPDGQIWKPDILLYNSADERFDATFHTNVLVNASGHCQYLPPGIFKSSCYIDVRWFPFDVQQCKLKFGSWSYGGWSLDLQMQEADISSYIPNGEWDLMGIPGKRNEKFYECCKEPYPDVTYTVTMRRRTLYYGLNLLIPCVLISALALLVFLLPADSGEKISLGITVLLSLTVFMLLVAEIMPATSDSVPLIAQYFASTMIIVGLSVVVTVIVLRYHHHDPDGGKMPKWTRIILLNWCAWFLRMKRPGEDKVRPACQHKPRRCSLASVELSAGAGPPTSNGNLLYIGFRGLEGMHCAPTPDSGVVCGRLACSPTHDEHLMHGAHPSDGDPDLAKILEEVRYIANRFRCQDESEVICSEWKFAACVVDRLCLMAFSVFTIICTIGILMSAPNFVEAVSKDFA

Question: Which inhibition at 5 min, 0.001 µM (hERG potassium channel [1]) does the source give for `COc1cc(N)c(Cl)cc1C(=O)NC1CCN(CCCOc2ccc(F)cc2)CC1OC` (stereo not shown) [Cisapride, reference compound] here?
Answer: The inhibition at 5 min, 0.001 µM was 8 ± 2%.

Question: And the inhibition at 5 min, 0.01 µM (hERG potassium channel [1])?
Answer: The inhibition at 5 min, 0.01 µM was 44 ± 1%.

Question: And the inhibition at 5 min, 0.1 µM (hERG potassium channel [1])?
Answer: Its inhibition at 5 min, 0.1 µM is 84 ± 1%.

Question: With `Fc1ccc(-c2ccc3oc(N4CCN5CCC4CC5)nc3n2)cn1` [Compound I-10] as the compound, how does the Ki (α7 nAChRs) read?
Answer: The Ki was 378 ± 119 nM.

Question: For `Nc1ccc2c(c1)C(=O)c1cc(N3CCN4CCC3CC4)ccc1-2` [II-5], which inhibition at 5 min, 0.4 µM (hERG potassium channel [1]) is on record?
Answer: Its inhibition at 5 min, 0.4 µM is 19 ± 1%.

Question: And the inhibition at 5 min, 2 µM (hERG potassium channel [1])?
Answer: Its inhibition at 5 min, 2 µM is 42 ± 1%.

Question: And the inhibition at 5 min, 10 µM (hERG potassium channel [1])?
Answer: The inhibition at 5 min, 10 µM was 79 ± 2%.

Question: What about the inhibition at 5 min, 50 µM (hERG potassium channel [1]) of the same compound?
Answer: The inhibition at 5 min, 50 µM was 98%.

Question: And the IC50 (hERG potassium channel [2]; [7])?
Answer: The IC50 was 2.5 ± 0.15 µM.

Question: What about the IC50 (hERG potassium channel [2]; [8]) of the same compound?
Answer: Its IC50 is 2.5 ± 0.15 µM.

Question: With `O=C1c2cc(F)ccc2-c2ccc(N3CCN4CCC3CC4)cc21` [II-6] as the compound, how does the inhibition at 5 min, 0.4 µM (hERG potassium channel [1]) read?
Answer: The inhibition at 5 min, 0.4 µM was 42 ± 2%.

Question: What about the inhibition at 5 min, 2 µM (hERG potassium channel [1]) of the same compound?
Answer: Its inhibition at 5 min, 2 µM is 80 ± 1%.

Question: And the inhibition at 5 min, 10 µM (hERG potassium channel [1])?
Answer: The inhibition at 5 min, 10 µM was 96 ± 1%.

Question: And the inhibition at 5 min, 50 µM (hERG potassium channel [1])?
Answer: Its inhibition at 5 min, 50 µM is 100%.

Question: And the “IC50(hERG)/IC50(α7 nAChR)” value (hERG potassium channel [3])?
Answer: Its value is 22.

Question: And the IC50 (hERG potassium channel [2]; [7])?
Answer: Its IC50 is 0.46 ± 0.055 µM.

Question: What about the IC50 (hERG potassium channel [2]; [8]) of the same compound?
Answer: Its IC50 is 0.46 ± 0.055 µM.

Question: Which results are given for `Nc1cccc2c1C(=O)c1cc(N3CCN4CCC3CC4)ccc1-2` [II-14]?
Answer: inhibition at 5 min, 0.4 µM (hERG potassium channel [1]): 6 ± 1%; inhibition at 5 min, 2 µM (hERG potassium channel [1]): 20 ± 2%; inhibition at 5 min, 10 µM (hERG potassium channel [1]): 25 ± 3%; inhibition at 5 min, 50 µM (hERG potassium channel [1]): 53 ± 4%; IC50 (hERG potassium channel [2]; [7]): 49.7 ± 15.9 µM; IC50 (hERG potassium channel [2]; [8]): 49.7 ± 15.9 µM

Question: Which inhibition at 5 min, 0.4 µM (hERG potassium channel [1]) does the source give for `O=C1c2cc(N3CCN4CCC3CC4)ccc2-c2cccc(F)c21` [II-15] here?
Answer: Its inhibition at 5 min, 0.4 µM is 45 ± 1%.

Question: What about the inhibition at 5 min, 2 µM (hERG potassium channel [1]) of the same compound?
Answer: Its inhibition at 5 min, 2 µM is 82 ± 1%.

Question: What about the inhibition at 5 min, 10 µM (hERG potassium channel [1]) of the same compound?
Answer: Its inhibition at 5 min, 10 µM is 97 ± 1%.

Question: And the inhibition at 5 min, 50 µM (hERG potassium channel [1])?
Answer: Its inhibition at 5 min, 50 µM is 98 ± 1%.

Question: And the “IC50(hERG)/IC50(α7 nAChR)” value (hERG potassium channel [3])?
Answer: The value was 74.

Question: What about the IC50 (hERG potassium channel [2]; [7]) of the same compound?
Answer: Its IC50 is 0.46 ± 0.011 µM.

Question: And the IC50 (hERG potassium channel [2]; [8])?
Answer: Its IC50 is 0.46 ± 0.011 µM.

Question: And the “Observation Record” value (Kunming mice; 43.74 mg/kg)?
Answer: The value was “Symptoms of convulsion, and trembling”.

Question: And the “Number of Death” value (Kunming mice; 43.74 mg/kg, 10 mice)?
Answer: The value was 1.

Question: What about the “Death Rate (%)” value (Kunming mice; 43.74 mg/kg, 14 days observation) of the same compound?
Answer: The value was 10%.

Question: What about the “Number of Death” value (Kunming mice; 48.6 mg/kg, 9 mice) of the same compound?
Answer: The value was 2.

Question: What about the “Death Rate (%)” value (Kunming mice; 48.6 mg/kg, 14 days observation) of the same compound?
Answer: Its value is 22%.

Question: What about the “Observation Record” value (Kunming mice; 54 mg/kg) of the same compound?
Answer: Its value is “Died after convulsion of 20 min; survivors”.

Question: And the “Number of Death” value (Kunming mice; 54 mg/kg, 10 mice)?
Answer: Its value is 6.

Question: And the “Death Rate (%)” value (Kunming mice; 54 mg/kg, 14 days observation)?
Answer: Its value is 60%.

Question: What about the “Observation Record” value (Kunming mice; 60 mg/kg) of the same compound?
Answer: Its value is “Died after convulsion of 6-10 min; survivors”.

Question: What about the “Number of Death” value (Kunming mice; 60 mg/kg, 10 mice) of the same compound?
Answer: Its value is 7.

Question: What about the “Death Rate (%)” value (Kunming mice; 60 mg/kg, 14 days observation) of the same compound?
Answer: Its value is 70%.

Question: What about the “Observation Record” value (Kunming mice; 64.8 mg/kg) of the same compound?
Answer: The value was “Died after convulsion of about 10 s: survivors”.

Question: What about the “Number of Death” value (Kunming mice; 64.8 mg/kg, 10 mice) of the same compound?
Answer: The value was 9.

Question: What about the “Death Rate (%)” value (Kunming mice; 64.8 mg/kg, 14 days observation) of the same compound?
Answer: The value was 90%.

Question: And the “weights of surviving mice in the observation period” value (Kunming mice; 14 days observation)?
Answer: Its value is “increased normally”.

Question: What about the “inappetence after the administration, then recovered to normal” value (Kunming mice; all administrated mice) of the same compound?
Answer: Its value is ≤ 1 h.

Question: What about the “tissues and organs of dissected dead mice” value (Kunming mice; all dose groups) of the same compound?
Answer: Its value is “no abnormality was found”.

Question: What about the LD50 at 14 days ([4]; weighted probit method, read-out: half lethal dosage LD50) of the same compound?
Answer: Its LD50 at 14 days is 53.7 mg/kg.

Question: And the LD50 at 14 days ([4]; read-out: 95% confidence limit of LD50)?
Answer: Its LD50 at 14 days is 50.4 to 57.2 mg/kg.

Question: With `CN1CC2CN(c3ccc(-c4ccc5c(ccn5CCF)c4)nc3)CC2C1` (stereo not shown) [III-19] as the compound, how does the Ki (α7 nAChRs) read?
Answer: The Ki was 456 ± 152 nM.

Question: Which Ki (α7 nAChRs) does the source give for `CN1CC2CN(c3ccc(-c4ccc(OCCF)cc4)nn3)CC2C1` (stereo not shown) [III-24] here?
Answer: Its Ki is 445 ± 31.5 nM.

Question: With `O=S1(=O)c2cc(N3CCN4CCC3CC4)ccc2-c2cccc([18F])c21` [[^18F] ASEM] as the compound, how does the “highest brain uptake value (reported)” value [5] read?
Answer: The value was 7.5 % ID/g.

Question: What about the “uptake value in corpus striatum (reported)” value ([6]; corpus striatum) of the same compound?
Answer: The value was 6.0 % ID/g.

Question: And the “uptake value in cortex (reported)” value ([6]; cortex)?
Answer: Its value is 7.2 % ID/g.

Question: And the “uptake value in hippocampus (reported)” value ([6]; hippocampus)?
Answer: Its value is 5.0 % ID/g.
